Laboratory results as given in ChEMBL document CHEMBL1152925, “Vladimuliecins A and B: cytotoxic pentacyclic pregnanols from Vladimiria muliensis” (J Nat Prod, 2009).

Tests used:
Format in all cases: functional, cell-based
HL-60 = assay: Cytotoxicity against human HL60 cells after 48 hrs by SRB assay
SMMC-7721 = assay: Cytotoxicity against human SMMC7721 cells after 48 hrs by SRB assay
HeLa = assay: Cytotoxicity against human HeLa cells after 48 hrs by SRB assay
[1] = Homo sapiens, HL-60, 48 h, read-out: IC50
[2] = Homo sapiens, SMMC-7721, 48 h, read-out: IC50

## C[C@@H](O)[C@H]1CC[C@@]2(O)[C@]1(C)CC[C@@H]1[C@@]3(C)CC[C@@H]4C[C@@]43[C@H](O)C[C@]12O
HL-60; hl-60
  IC50: 138 µM
SMMC-7721; smmc-7721
  IC50: 101 µM
HeLa; hela
  IC50: 165 µM

## CO[C@@]12[C@H](COC(N)=O)C3=C(C(=O)C(C)=C(N)C3=O)N1C[C@@H]1N[C@@H]12 [MITOMYCIN]
HL-60; [1]
  IC50: 1.5 µM
SMMC-7721; [2]
  IC50: 5.4 µM
HeLa; Homo sapiens, HeLa, 48 h, read-out: IC50
  IC50: 3.3 µM

## CC(=O)O[C@H](C)[C@H]1CC[C@@]2(O)[C@]1(C)CC[C@@H]1[C@@]3(C)CC[C@@H]4C[C@@]43[C@H](OC(C)=O)C[C@]12O [VLADIMULIECIN A]
HL-60; [1]
  IC50: 99 µM
SMMC-7721; [2]
  IC50: 98.6 µM
HeLa; hela
  IC50: 167 µM

## CC(=O)O[C@H](C)[C@H]1CC[C@@]2(O)[C@]1(C)CC[C@@H]1[C@@]3(C)CC[C@@H]4C[C@@]43[C@H](O)C[C@]12O [VLADIMULIECIN B]
HL-60; [1]
  IC50: 88 µM
SMMC-7721; smmc-7721
  IC50: 104 µM
HeLa; hela
  IC50: 121 µM
